Results from patent publication US20080009418A1, “Selective Inhibitors” (Alchemia LTD., priority 2004, published 2008).

How the values were obtained:
[1] = target: T1, Human δ-opioid (DOP) (Homo sapiens, UniProt P41143); test: Radioligand binding, human δ-opioid (DOP) membranes, FlashPlate, [3H]-Bremazocine; conditions: compound at 10 μM; for A1 radioligand binding inhibition: human δ-opioid (DOP) membranes; for A1: inhibition of radioligand binding: FlashPlate
T1 construct: purchased Perkin Elmer Biosignal
How it was run: (§1)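 Cloned human receptor membranes were coated onto FlashPlate wells and incubated with radioligand and compound (added from a 0.5 mM DMSO daughter plate) for 1 hour at room temperature in the dark. Scintillation counting gave percent inhibition, with DMSO defining total and reference ligand defining non-specific binding.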

[2] = target: T2, Human κ-Opioid (KOP) (Homo sapiens, UniProt P41145); test: Radioligand binding, human κ-opioid (KOP) membranes, filtration, [3H]-Diprenorphine; conditions: compound at 10 μM; for A2 radioligand binding inhibition: human κ-opioid (KOP) membranes; for A2: inhibition of radioligand binding: filtration
T2 construct: purchased Perkin Elmer Biosignal
How it was run: (§2)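 Membranes from cloned human receptors were incubated with compound and radioligand for 1 hour at room temperature. Bound ligand was collected on 0.3% PEI-soaked filters, washed with cold 50 mM Tris-HCl pH 7.4, and counted by scintillation. Percent inhibition was computed against DMSO totals and reference-ligand nonspecific wells.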

[3] = target: T3, Human Melanocortin (MC3) (Homo sapiens, UniProt P41968); test: Radioligand binding, human melanocortin MC3 membranes, FlashPlate, [125I]-NDP-αMSH; conditions: compound at 10 μM; for A3 radioligand binding inhibition: human melanocortin MC3 membranes; for A3: inhibition of radioligand binding: FlashPlate
T3 construct: purchased Perkin Elmer Biosignal
How it was run: as §1

[4] = target: T4, Human Melanocortin (MC4) (Homo sapiens, UniProt P32245); test: Radioligand binding, human melanocortin MC4 membranes, FlashPlate, [125I]-NDP-αMSH; conditions: compound at 10 μM; for A4 radioligand binding inhibition: human melanocortin MC4 membranes; for A4: inhibition of radioligand binding: FlashPlate
T4 construct: purchased Perkin Elmer Biosignal
How it was run: as §1

[5] = target: T5, Human melanocortin (MC5) (Homo sapiens, UniProt P33032); test: Radioligand binding, human melanocortin MC5 membranes, FlashPlate, [125I]-NDP-αMSH; conditions: compound at 10 μM; for A5 radioligand binding inhibition: human melanocortin MC5 membranes; for A5: inhibition of radioligand binding: FlashPlate
T5 construct: purchased Perkin Elmer Biosignal
How it was run: as §1

[6] = target: T6, Human melanin-concentrating hormone (MCH1) (Homo sapiens, UniProt Q99705); test: Radioligand binding, human melanin-concentrating hormone MCH1 membranes, FlashPlate, [125I]-S36057; conditions: compound at 10 μM; for A6 radioligand binding inhibition: human MCH1 membranes; for A6: inhibition of radioligand binding: [125I]-S36057, FlashPlate
T6 construct: purchased Perkin Elmer Biosignal
How it was run: as §1

[7] = target: T7, Human μ-opioid (MOP) (Homo sapiens, UniProt P35372); test: Radioligand binding, human μ-opioid (MOP) membranes, FlashPlate, [3H]-Naloxone; conditions: compound at 10 μM; for A7 radioligand binding inhibition: human μ-opioid (MOP) membranes; for A7: inhibition of radioligand binding: FlashPlate
T7 construct: purchased Perkin Elmer Biosignal
How it was run: as §1

[8] = target: T8, Human neurokinin (NK1) (Homo sapiens, UniProt P25103); test: Radioligand binding, human neurokinin NK1 membranes, filtration, [125I]-Substance P; conditions: compound at 10 μM; for A8 radioligand binding inhibition: human neurokinin NK1 membranes; for A8: inhibition of radioligand binding: filtration
T8 construct: purchased Perkin Elmer Biosignal
How it was run: as §2

[9] = target: T9, Human neuropeptide Y (NPY-Y1) (Homo sapiens, UniProt P25929); test: Radioligand binding, human neuropeptide Y NPY-Y1 membranes, FlashPlate, [125I]-PYY; conditions: compound at 10 μM; for A9 radioligand binding inhibition: human NPY-Y1 membranes; for A9: inhibition of radioligand binding: FlashPlate
T9 construct: purchased Perkin Elmer Biosignal
T9 sequence (P25929 1-384): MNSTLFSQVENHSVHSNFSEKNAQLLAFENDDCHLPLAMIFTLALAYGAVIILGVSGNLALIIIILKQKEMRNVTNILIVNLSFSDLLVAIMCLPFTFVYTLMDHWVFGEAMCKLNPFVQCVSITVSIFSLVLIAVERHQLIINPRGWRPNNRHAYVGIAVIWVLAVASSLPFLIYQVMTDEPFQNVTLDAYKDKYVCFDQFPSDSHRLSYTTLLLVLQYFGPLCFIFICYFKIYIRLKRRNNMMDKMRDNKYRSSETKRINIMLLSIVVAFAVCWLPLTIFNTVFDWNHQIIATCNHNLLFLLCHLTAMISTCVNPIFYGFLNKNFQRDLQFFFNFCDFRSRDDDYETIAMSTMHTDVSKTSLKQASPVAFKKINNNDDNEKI
How it was run: as §1

[10] = target: T10, Human opioid (ORL1) (Homo sapiens, UniProt P41146); test: Radioligand binding, human opioid ORL1 membranes, FlashPlate, [125I]-Nociceptin; conditions: compound at 10 μM; for A10 radioligand binding inhibition: human ORL1 membranes; for A10: inhibition of radioligand binding: FlashPlate
T10 construct: purchased Perkin Elmer Biosignal
How it was run: as §1

[11] = target: T11, Mouse urotensin (mUR2) (Mus musculus, UniProt Q8VIH9); test: Radioligand binding, mouse urotensin mUR2 membranes, FlashPlate, [125I]-Urotensin II; conditions: compound at 10 μM; for A11 radioligand binding inhibition: mouse urotensin mUR2 membranes; for A11: inhibition of radioligand binding: FlashPlate
T11 construct: purchased Perkin Elmer Biosignal
T11 sequence (Q8VIH9 1-385): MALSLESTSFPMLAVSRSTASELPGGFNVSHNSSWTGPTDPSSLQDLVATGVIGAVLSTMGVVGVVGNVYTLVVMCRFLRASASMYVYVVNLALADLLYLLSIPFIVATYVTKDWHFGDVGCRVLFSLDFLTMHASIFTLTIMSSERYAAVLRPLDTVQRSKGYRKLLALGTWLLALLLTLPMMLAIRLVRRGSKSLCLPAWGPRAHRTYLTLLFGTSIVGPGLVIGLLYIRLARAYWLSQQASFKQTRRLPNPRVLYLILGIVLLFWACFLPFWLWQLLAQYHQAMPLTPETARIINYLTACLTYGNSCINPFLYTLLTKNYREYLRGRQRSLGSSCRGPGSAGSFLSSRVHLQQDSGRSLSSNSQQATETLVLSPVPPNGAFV
How it was run: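 Cloned mouse urotensin (mUR2) receptor membranes from Perkin Elmer Biosignal were immobilized in FlashPlate microplates using a proprietary coating. Each well got 19.5 μl buffer, then 0.5 μl of DMSO, reference ligand, or compound. Adding 5 μl of [125I]-Urotensin II, diluted to 5× final concentration in binding buffer, started binding. Plates were sealed with TopSeal-A and incubated 1 hour at room temperature in the dark. Wells were counted for 30 seconds each on a TopCount after a 60-second delay, and percentage inhibition was calculated.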

T6 sequence (Q99705 whole entry): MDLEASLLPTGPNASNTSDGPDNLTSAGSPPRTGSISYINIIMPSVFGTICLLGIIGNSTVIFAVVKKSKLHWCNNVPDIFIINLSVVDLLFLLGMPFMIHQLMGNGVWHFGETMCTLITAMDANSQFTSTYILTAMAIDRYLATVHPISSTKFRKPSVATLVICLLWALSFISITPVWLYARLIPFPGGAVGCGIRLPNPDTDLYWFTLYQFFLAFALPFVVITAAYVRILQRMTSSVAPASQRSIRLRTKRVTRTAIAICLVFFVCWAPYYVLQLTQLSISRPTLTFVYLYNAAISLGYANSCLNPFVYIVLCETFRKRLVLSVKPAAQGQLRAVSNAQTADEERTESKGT
T7 sequence (P35372 whole entry): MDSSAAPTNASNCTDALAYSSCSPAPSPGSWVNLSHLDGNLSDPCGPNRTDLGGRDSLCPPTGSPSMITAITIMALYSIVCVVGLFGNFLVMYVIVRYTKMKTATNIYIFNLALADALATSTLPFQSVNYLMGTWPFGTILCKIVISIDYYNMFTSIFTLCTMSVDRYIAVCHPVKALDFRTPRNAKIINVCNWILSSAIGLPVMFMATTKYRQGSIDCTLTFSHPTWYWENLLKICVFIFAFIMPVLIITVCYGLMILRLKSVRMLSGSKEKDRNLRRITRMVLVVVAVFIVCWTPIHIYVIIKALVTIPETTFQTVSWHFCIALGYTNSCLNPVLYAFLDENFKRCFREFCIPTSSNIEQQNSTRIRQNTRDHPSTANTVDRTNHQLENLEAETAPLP
T5 sequence (P33032 whole entry): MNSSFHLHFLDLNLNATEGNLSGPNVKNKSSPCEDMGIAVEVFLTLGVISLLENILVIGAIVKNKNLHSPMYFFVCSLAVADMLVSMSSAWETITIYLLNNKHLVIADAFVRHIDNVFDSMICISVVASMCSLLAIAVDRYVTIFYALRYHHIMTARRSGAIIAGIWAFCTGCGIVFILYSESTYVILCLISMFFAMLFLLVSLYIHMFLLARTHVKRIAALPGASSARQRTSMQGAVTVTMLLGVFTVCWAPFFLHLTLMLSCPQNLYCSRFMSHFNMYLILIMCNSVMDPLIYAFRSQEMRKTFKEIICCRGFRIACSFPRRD
T3 sequence (P41968 whole entry): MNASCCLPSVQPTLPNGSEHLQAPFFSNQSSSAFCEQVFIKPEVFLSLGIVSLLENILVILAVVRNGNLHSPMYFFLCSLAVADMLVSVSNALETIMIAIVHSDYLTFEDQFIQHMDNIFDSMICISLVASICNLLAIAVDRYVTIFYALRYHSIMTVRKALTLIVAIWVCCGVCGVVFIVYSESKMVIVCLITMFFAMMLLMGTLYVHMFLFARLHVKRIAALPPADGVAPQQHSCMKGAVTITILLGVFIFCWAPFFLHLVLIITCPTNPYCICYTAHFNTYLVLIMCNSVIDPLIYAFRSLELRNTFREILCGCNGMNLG
T1 sequence (P41143 whole entry): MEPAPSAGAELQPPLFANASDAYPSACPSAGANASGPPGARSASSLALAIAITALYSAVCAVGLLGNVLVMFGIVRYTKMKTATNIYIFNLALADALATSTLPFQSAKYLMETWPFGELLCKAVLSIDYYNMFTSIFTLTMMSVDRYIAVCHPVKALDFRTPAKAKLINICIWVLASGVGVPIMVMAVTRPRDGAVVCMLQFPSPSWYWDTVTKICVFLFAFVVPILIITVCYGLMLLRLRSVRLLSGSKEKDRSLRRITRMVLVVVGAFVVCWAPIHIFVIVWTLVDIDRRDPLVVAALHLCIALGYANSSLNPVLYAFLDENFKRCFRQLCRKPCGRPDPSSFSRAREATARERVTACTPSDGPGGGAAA
T10 sequence (P41146 whole entry): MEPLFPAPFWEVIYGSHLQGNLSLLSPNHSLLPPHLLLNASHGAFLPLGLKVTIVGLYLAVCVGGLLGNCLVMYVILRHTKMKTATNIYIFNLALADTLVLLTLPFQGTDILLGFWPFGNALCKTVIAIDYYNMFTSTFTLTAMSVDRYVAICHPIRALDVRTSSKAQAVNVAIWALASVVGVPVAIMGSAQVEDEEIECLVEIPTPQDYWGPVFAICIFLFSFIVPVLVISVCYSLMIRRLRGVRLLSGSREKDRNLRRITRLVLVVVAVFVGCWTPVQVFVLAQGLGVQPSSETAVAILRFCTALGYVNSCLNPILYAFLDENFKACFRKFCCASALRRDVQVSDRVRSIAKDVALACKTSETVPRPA
T4 sequence (P32245 whole entry): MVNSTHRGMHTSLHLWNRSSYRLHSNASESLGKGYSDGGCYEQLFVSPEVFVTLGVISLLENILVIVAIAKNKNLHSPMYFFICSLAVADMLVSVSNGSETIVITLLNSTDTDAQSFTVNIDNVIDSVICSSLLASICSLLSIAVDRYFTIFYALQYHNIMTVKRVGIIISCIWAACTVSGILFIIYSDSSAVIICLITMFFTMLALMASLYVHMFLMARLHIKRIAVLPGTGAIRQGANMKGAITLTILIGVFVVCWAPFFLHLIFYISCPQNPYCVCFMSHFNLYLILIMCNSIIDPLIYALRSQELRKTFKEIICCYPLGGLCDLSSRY
T2 sequence (P41145 whole entry): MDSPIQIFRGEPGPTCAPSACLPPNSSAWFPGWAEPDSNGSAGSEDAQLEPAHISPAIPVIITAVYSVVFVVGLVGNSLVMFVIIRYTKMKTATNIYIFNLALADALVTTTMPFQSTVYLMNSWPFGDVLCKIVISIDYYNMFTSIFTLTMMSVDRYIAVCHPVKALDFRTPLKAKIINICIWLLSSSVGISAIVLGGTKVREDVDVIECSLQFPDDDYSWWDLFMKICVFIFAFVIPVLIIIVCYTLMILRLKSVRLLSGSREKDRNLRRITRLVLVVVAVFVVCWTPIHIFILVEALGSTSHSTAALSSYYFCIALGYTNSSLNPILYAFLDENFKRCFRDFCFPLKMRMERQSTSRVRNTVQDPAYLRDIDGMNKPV
T8 sequence (P25103 whole entry): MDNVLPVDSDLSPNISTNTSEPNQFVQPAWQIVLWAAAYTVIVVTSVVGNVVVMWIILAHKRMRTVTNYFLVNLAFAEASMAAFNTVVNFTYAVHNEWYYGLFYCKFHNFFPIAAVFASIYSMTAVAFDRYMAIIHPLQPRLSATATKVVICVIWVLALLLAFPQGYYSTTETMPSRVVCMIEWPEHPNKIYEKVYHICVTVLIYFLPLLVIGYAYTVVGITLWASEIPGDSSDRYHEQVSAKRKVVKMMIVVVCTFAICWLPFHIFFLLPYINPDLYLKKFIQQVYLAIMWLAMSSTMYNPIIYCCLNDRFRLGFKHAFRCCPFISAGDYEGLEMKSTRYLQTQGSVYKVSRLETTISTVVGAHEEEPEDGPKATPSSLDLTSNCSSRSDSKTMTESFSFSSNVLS

SMILES	A1 radioligand binding inhibition [1]	A2 radioligand binding inhibition [2]	A3 radioligand binding inhibition [3]	A4 radioligand binding inhibition [4]	A5 radioligand binding inhibition [5]	A6 radioligand binding inhibition [6]	A7 radioligand binding inhibition [7]	A8 radioligand binding inhibition [8]	A9 radioligand binding inhibition [9]	A10 radioligand binding inhibition [10]	A11 radioligand binding inhibition [11]	A1: inhibition of radioligand binding ([1]; [3H]-Bremazocine)	A2: inhibition of radioligand binding ([2]; [3H]-Diprenorphine)	A3: inhibition of radioligand binding ([3]; [125I]-NDP-αMSH)	A4: inhibition of radioligand binding ([4]; [125I]-NDP-αMSH)	A5: inhibition of radioligand binding ([5]; [125I]-NDP-αMSH)	A6: inhibition of radioligand binding [6]	A7: inhibition of radioligand binding ([7]; [3H]-Naloxone)	A8: inhibition of radioligand binding ([8]; [125I]-Substance P)	A9: inhibition of radioligand binding ([9]; [125I]-PYY)	also measured
COC[C@H]1OC(OCCc2ccccc2)[C@H](NC(=O)CCNC(=N)N)[C@@H](OCc2ccc(-c3ccccc3)cc2)[C@@H]1O (stereo partly shown) [compound 41]	− (“−” indicates less than 50% inhibition at 10 μM)	− (“−” indicates less than 50% inhibition at 10 μM)	− (“−” indicates less than 50% inhibition at 10 μM)	+ (“+” indicates greater than 50% inhibition at 10 μM)	+ (“+” indicates greater than 50% inhibition at 10 μM)	+ (“+” indicates greater than 50% inhibition at 10 μM)	− (“−” indicates less than 50% inhibition at 10 μM)	+ (“+” indicates greater than 50% inhibition at 10 μM)	− (“−” indicates less than 50% inhibition at 10 μM)	− (“−” indicates less than 50% inhibition at 10 μM)	− (“−” indicates less than 50% inhibition at 10 μM)	–	–	–	–	–	–	–	–	–	–
CSC1OC(COCc2ccc3ccccc3c2)C(O)C(OCc2ccc3ccccc3c2)C1NC(=O)CCCNC(=N)N (stereo not shown) [compound 321]	–	–	–	–	–	–	–	–	–	–	–	–	–	–	–	–	–	–	–	–	A1: inhibition of radioligand binding, human δ-opioid (DOP) ([1]; [3H]-Bremazocine): − (“−” indicates less than 50% inhibition at 10 μM); A2: inhibition of radioligand binding, human κ-opioid (KOP) ([2]; [3H]-Diprenorphine): − (“−” indicates less than 50% inhibition at 10 μM); A3: inhibition of radioligand binding, human melanocortin (MC3) ([3]; [125I]-NDP-αMSH): + (“+” indicates greater than 50% inhibition at 10 μM); A4: inhibition of radioligand binding, human melanocortin (MC4) ([4]; [125I]-NDP-αMSH): + (“+” indicates greater than 50% inhibition at 10 μM); A5: inhibition of radioligand binding, human melanocortin (MC5) ([5]; [125I]-NDP-αMSH): + (“+” indicates greater than 50% inhibition at 10 μM); A6: inhibition of radioligand binding, human melanin-concentrating hormone (MCH1) ([6]; [125I]-S36057): + (“+” indicates greater than 50% inhibition at 10 μM); A7: inhibition of radioligand binding, human μ-opioid (MOP) ([7]; [3H]-Naloxone): − (“−” indicates less than 50% inhibition at 10 μM); A8: inhibition of radioligand binding, human neurokinin (NK1) ([8]; [125I]-Substance P): + (“+” indicates greater than 50% inhibition at 10 μM); A9: inhibition of radioligand binding, human neuropeptide Y (NPY-Y1) ([9]; [125I]-PYY): − (“−” indicates less than 50% inhibition at 10 μM); A10: inhibition of radioligand binding, human opioid (ORL1) ([10]; [125I]-Nociceptin): − (“−” indicates less than 50% inhibition at 10 μM); A11: inhibition of radioligand binding, mouse urotensin (mUR2) ([11]; [125I]-Urotensin II): − (“−” indicates less than 50% inhibition at 10 μM)
COCC1OC(OCCc2ccccc2)C(NC(=O)CN)C(OCc2ccccc2)C1O (stereo not shown) [compound 214]	–	–	–	–	–	–	–	–	–	–	–	− (“−” indicates less than 50% inhibition at 10 μM)	− (“−” indicates less than 50% inhibition at 10 μM)	− (“−” indicates less than 50% inhibition at 10 μM)	− (“−” indicates less than 50% inhibition at 10 μM)	− (“−” indicates less than 50% inhibition at 10 μM)	− (“−” indicates less than 50% inhibition at 10 μM)	− (“−” indicates less than 50% inhibition at 10 μM)	+ (“+” indicates greater than 50% inhibition at 10 μM)	− (“−” indicates less than 50% inhibition at 10 μM)	A10: inhibition of radioligand binding ([10]; [125I]-Nociceptin): − (“−” indicates less than 50% inhibition at 10 μM); A11: inhibition of radioligand binding ([11]; [125I]-Urotensin II): − (“−” indicates less than 50% inhibition at 10 μM)
COC[C@H]1OC(OCCc2ccccc2)[C@H](NC(=O)CCCN)[C@@H](OCc2ccc(-c3ccccc3)cc2)[C@@H]1O (stereo partly shown) [compound 42]	− (“−” indicates less than 50% inhibition at 10 μM)	− (“−” indicates less than 50% inhibition at 10 μM)	− (“−” indicates less than 50% inhibition at 10 μM)	− (“−” indicates less than 50% inhibition at 10 μM)	+ (“+” indicates greater than 50% inhibition at 10 μM)	− (“−” indicates less than 50% inhibition at 10 μM)	− (“−” indicates less than 50% inhibition at 10 μM)	− (“−” indicates less than 50% inhibition at 10 μM)	− (“−” indicates less than 50% inhibition at 10 μM)	− (“−” indicates less than 50% inhibition at 10 μM)	− (“−” indicates less than 50% inhibition at 10 μM)	–	–	–	–	–	–	–	–	–	–
COCC1OC(OCc2ccc3ccccc3c2)C(NC(=O)CCN)C(OCc2ccc(Cl)cc2)C1O (stereo not shown) [compound 237]	–	–	–	–	–	–	–	–	–	–	–	− (“−” indicates less than 50% inhibition at 10 μM)	− (“−” indicates less than 50% inhibition at 10 μM)	− (“−” indicates less than 50% inhibition at 10 μM)	− (“−” indicates less than 50% inhibition at 10 μM)	+ (“+” indicates greater than 50% inhibition at 10 μM)	− (“−” indicates less than 50% inhibition at 10 μM)	− (“−” indicates less than 50% inhibition at 10 μM)	+ (“+” indicates greater than 50% inhibition at 10 μM)	− (“−” indicates less than 50% inhibition at 10 μM)	A10: inhibition of radioligand binding ([10]; [125I]-Nociceptin): − (“−” indicates less than 50% inhibition at 10 μM); A11: inhibition of radioligand binding ([11]; [125I]-Urotensin II): − (“−” indicates less than 50% inhibition at 10 μM)
